Results reported in article PMC3060605 (Nature Communications, 2010).

Molecular target: N1 (A/HongKong/156/97 (H5N1)) sialidase (Influenza A virus, UniProt Q9W7Y7)
Assay: biochemical

Chain of N1 (A/HongKong/156/97 (H5N1)) sialidase (Q9W7Y7 whole entry, looked up): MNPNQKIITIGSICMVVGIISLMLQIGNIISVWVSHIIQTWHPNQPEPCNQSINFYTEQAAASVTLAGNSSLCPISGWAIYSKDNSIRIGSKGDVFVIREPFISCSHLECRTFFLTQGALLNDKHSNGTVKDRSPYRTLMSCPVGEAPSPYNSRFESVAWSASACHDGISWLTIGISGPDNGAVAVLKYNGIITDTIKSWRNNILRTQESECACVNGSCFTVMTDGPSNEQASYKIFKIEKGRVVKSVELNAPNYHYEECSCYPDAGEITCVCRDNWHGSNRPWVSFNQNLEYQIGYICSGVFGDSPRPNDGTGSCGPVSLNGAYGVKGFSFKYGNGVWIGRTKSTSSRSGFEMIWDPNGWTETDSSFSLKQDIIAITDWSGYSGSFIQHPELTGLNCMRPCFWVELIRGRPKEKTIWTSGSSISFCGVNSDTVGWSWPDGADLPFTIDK

## CC(=O)N[C@H]1[C@H]([C@H](O)[C@H](O)CO)OC(C(=O)O)=C[C@@H]1N=C(N)N [Compound 1, zanamivir]
  Ki: 170 pM
